In this test the target is hyaluronidase (HAase). As to the kind of experiment: Hyaluronidase (HAase) inhibitory activity, N-acetylglucosamine from hyaluronic acid, DMAB absorbance at 540 nm. The class given is biochemical. As for the experimental part:
The hyaluronidase (HAase) inhibitory activity was identified by measuring N-acetylglucosamine produced by degradation of hyaluronic acid by hyaluronidase. 12.5 μL of HAase (8 mg/mL) dissolved in 0.1 M acetate buffer (pH 3.5) was mixed with 12.5 μL of agar partial hydrolysis product (PHP) at a concentration of 9 mg/mL and reacted at 37° C. for 20 minutes. To activate the HAase, the mixture was added with 25 μL of 12.5 mM CaCl2) and reacted at 37 °C for 20 minutes, and added with 62.5 μL of hyaluronic acid (2.4 mg/ml) dissolved in 0.1 M acetate buffer (pH 3.5) and reacted at 37° ° C. for 40 minutes again. To stop the substrate-enzyme reaction, the reaction solution was added with 25 μl of 0.4 N NaOH and 25 μl of 0.4 N potassium tetraborate, reacted at 100° C. for 3 minutes, and then cooled. The reaction solution was added with 750 μl of a DMAB solution and cultured at 37 °C for 20 minutes, and the absorbance was measured at 540 nm. The inhibitory activity was calculated using the following equation.

Each structure is given as a SMILES string.

For orientation: IC50 means the point on the concentration scale where inhibition reaches its midpoint. Low readings indicate greater potency, high ones weaker potency. On to `O=C([O-])c1cc(=O)c2c(OCC(O)COc3cccc4oc(C(=O)[O-])cc(=O)c34)cccc2o1.[Na+].[Na+]` [DSCG, Disodium cromoglycate], for which the IC50 (hyaluronidase inhibition) stood at 28 ± 10 µg/mL. For the same molecule, the “Inhibition (%)” value (sample solution 1 mg/mL) is reported as 65.32 ± 0.20%.

The values above are taken from patent publication US20240269058A1, “AGAR HYDROLYSIS PRODUCT HAVING HYALURONIDASE INHIBITORY ACTIVITY AND USES THEREOF” (KOREA INSTITUTE OF OCEAN SCIENCE & TECHNOLOGY, priority 2022, published 2024).
